The text below walks through data of patent US8691576B2, “Regeneration and mass propagation of Jatropha curcas through somatic embryogenesis” (Joil (S) Pte Ltd., priority 2008, dated 2014).

Holding throughout (assay type): cell-based
The subject of experiment [1] is Jatropha curcas somatic embryos (TISEs). The experiment in a line: Effect of GA3 on germination of somatic embryos.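 For all read-outs here: groups of 20–30 TISEs per medium were moved onto each medium and scored for germination traits, with GA3-free media as the comparison.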 To be noted: for Hypocotyl Extension % / Root Growth % / Viable Germination SE % / Hypocotyl Extension SE Count / Root Growth SE Count / Viable Germination SE Count: three weeks; for Hypocotyl Extension SE Count / Root Growth SE Count / Viable Germination SE Count: 30 explants.

In experiment [2] the test system is Jatropha curcas somatic embryo explants. The experiment is described as follows: Re-initiation of somatic embryogenesis from matured somatic embryos on solid DGA and derivative media. The note with it: for production of secondary somatic embryos and embryogenic calli: supplementation in solid DGA-type medium. As to the method:
Somatic embryos were matured in 2,4-D-free liquid MS medium and hypocotyl-root apex tissues were excised from somatic embryos larger than 0.5 cm. Those smaller than 0.5 cm were cultured intact. The explants were cultured in various DGA or its derivative solid medium. […] 2,4-D and kinetin could be added as optional supplements (not shown).

In experiment [3] the test system is Jatropha curcas embryogenic calli. The experiment is described as follows: Embryogenic liquid suspension culture. The note with it: KNO3 increased to 1.9 g/l to 3.8 g/l. As to the method: FIGS. 5A-5D show embryogenic liquid suspension culture. About 50 mg embryogenic calli produced in solid DGA medium were inoculated in 20 ml modified DGA liquid media. Embryos larger than 2 mm were removed before inoculation. Subculture was done every two weeks. Photos were taken after 2 subcultures. FIG. 5A: 20 g/l sucrose, 1 g/l glutamine, 0.5 g/l asparagine, no 2,4-D. FIG. 5B: 20 g/l sucrose, 1 g/l glutamine, 0.5 g/l asparagine, 0.2 g/1 2,4-D. FIG. 5C: 30 g/l sucrose, 1 g/l glutamine, 0.5 g/l asparagine, 0.2 g/1 2,4-D. FIG. 5D: 20 g/l sucrose, 1 g/l glutamine, 0.5 g/l asparagine, 1 g/1 2,4-D. Arrow indicates the non-embryogenic ball-shaped calli. Scale bar represents 1 cm.
Liquid cultures were performed in 65 mm plastic cylinder containers or 250 ml glass conical flasks that were placed in shakers set at 80 rpm, 28° C. constant temperature and 16-8 hours day-light cycles.
Effects 2,4-D and carbon source on establishment of somatic embryogenic liquid suspension culture was investigated. […] At sucrose level ranging from 10-30 g/l, continued culture lead to maturation of the somatic embryo with no new initiation of secondary embryos (FIG. 5A). The somatic embryos thus produced share good synchrony and are excellent materials for re-induction of TIISEs (Refer to Example 13). […] The suspension cultures were stable for months if large embryos were removed. Further, sucrose concentration needs to be reduced below about 20 g/l (compare FIGS. 5B and 5C).

Experiment [4] has as its system Jatropha curcas immature embryo and endosperm explants. The experiment is described as follows: Effect of kinetin on TISE and TIISE formation. To be noted: for TIISE (%) >5 SE / TIISE (%) >10 SE / TIISE (%) Total / TISE (%): 5 mg/l 2,4-D, 6 weeks, then DGA 4 weeks. As to the method: Developing fruits were surface-sterilized and dissected to yield 120 immature embryos that were shorter than 1.5 cm in length. After cutting into halves, the explants were cultured in media with a series of kinetin concentrations. On the 5th day, the endosperm tissues were separated from the embryos, further reduced into small pieces of about 0.25 cm^2 and transferred to the fresh medium with the same kinetin concentrations. After one subcultures (6 weeks in total), the calli were transferred to DGA medium and cultured for one month. Twenty immature embryos were used in each treatment. It was observed that TISEs were almost exclusively formed on endosperm tissues where the embryos had been detached after three's culture.

In experiment [5] the test system is Jatropha curcas somatic embryos. The experiment in a line: Effect of abscisic acid in maturation media on germination. To be noted: ABA 0-5 mg/l in DGA or EGA media or variants. As to the method:
To further explore methods to improve germination, abscisic acid (ABA) between 0-5 mg/l was supplemented in DGA or EGA media or their variants with 10-30 g/l sucrose and 20-60 g/1 maltose. […] Examples of the effects are shown in Table 10, where 20-30 TISEs were transferred to various media listed below. Except in ¼ strength MS medium, few somatic embryos germinated without GA3. […] Reducing the strength of basal salts was likewise beneficial to germination of somatic embryos.

Where [6] appears, read: Full strength MS salt and B5 vitamins, GA3 2 mg/L.
The mark [7] stands for this setting: Full strength MS salt and B5 vitamins, GA3 3 mg/L.
The mark [8] stands for this setting: ¼ Strength MS salt and B5 vitamins, GA3 2 mg/L.
[9] abbreviates: ¼ Strength MS salt and B5 vitamins, GA3 3 mg/L.
[10] abbreviates: ½ Strength MS salt and B5 vitamins, GA3 2 mg/L.
The mark [11] stands for this setting: ½ Strength MS salt and B5 vitamins, GA3 3 mg/L.

Regarding `C=C1C[C@]23C[C@@]1(O)CC[C@H]2[C@@]12C=C[C@H](O)[C@@](C)(C(=O)O1)[C@H]2[C@@H]3C(=O)O` [GA3, gibberellic acid], the “Hypocotyl Extension %” value in experiment [1] (setting [6]) was found to be 30%; in experiment [1] (setting [7]), 44%; in experiment [1] (setting [8]) it was 32%; in experiment [1] (setting [9]), 26%; in experiment [1] (setting [10]) it was 34%; in experiment [1] (setting [11]) it was 26%. Also, the “Root Growth %” value was found to be 53% in experiment [1] (setting [6]); 37% in experiment [1] (setting [7]); 43% in experiment [1] (setting [8]); 47% in experiment [1] (setting [9]); 27% in experiment [1] (setting [10]); 53% in experiment [1] (setting [11]). For the same molecule, the “Viable Germination SE %” value was found to be 30% in experiment [1] (setting [6]); 5% in experiment [1] (setting [7]); 19% in experiment [1] (setting [8]); 8% in experiment [1] (setting [9]); 21% in experiment [1] (setting [10]); 23% in experiment [1] (setting [11]). Also, the “Hypocotyl Extension SE Count” value came to 16 in experiment [1] (setting [6]); 16 in experiment [1] (setting [7]); 14 in experiment [1] (setting [8]); 12 in experiment [1] (setting [9]); 9 in experiment [1] (setting [10]); 14 in experiment [1] (setting [11]). Further, the “Root Growth SE Count” value is listed as 16 in experiment [1] (setting [6]); 11 in experiment [1] (setting [7]); 13 in experiment [1] (setting [8]); 14 in experiment [1] (setting [9]); 8 in experiment [1] (setting [10]); 16 in experiment [1] (setting [11]). Further, the “Viable Germination SE Count” value in experiment [1] (setting [6]) is listed as 9; in experiment [1] (setting [7]) it was 2; in experiment [1] (setting [8]), 6; in experiment [1] (setting [9]), 2; in experiment [1] (setting [10]) it was 7; in experiment [1] (setting [11]), 6. For the same molecule, in experiment [1] (many media tested), the “germination of somatic embryos” value was “significantly improved germination in many media tested”.

On to `O=[N+]([O-])[O-].[K+]` [KNO3], for which the “embryo differentiation and maturation” value in experiment [2] (increase in KNO3 in modified DGA solid medium) is reported as “favored embryo differentiation but inhibited maturation”. The “maintenance of liquid suspension culture” value in experiment [3] is “facilitated maintaining the liquid suspension culture at early stages of embryogenesis”.

With `c1coc(CNc2ncnc3[nH]cnc23)c1` [Kinetin, kinetin], in experiment [4] (Kinetin 0.05 mg/l), the “TIISE (%) >5 SE” value was found to be 15%, the “TIISE (%) >10 SE” value was determined as 0%, the “TIISE (%) Total” value stood at 25% and the “TISE (%)” value came out at 35%. For the same molecule, in experiment [4] (Kinetin 0.1 mg/l), the “TIISE (%) >5 SE” value is 15%, the “TIISE (%) >10 SE” value came to 5%, the “TIISE (%) Total” value was determined as 30% and the “TISE (%)” value stood at 35%. Also, in experiment [4] (Kinetin 0.2 mg/l), the “TIISE (%) >5 SE” value turned out to be 15%, the “TIISE (%) >10 SE” value was 0%, the “TIISE (%) Total” value is 30% and the “TISE (%)” value is recorded as 40%. In experiment [4] (Kinetin 0.5 mg/l), the “TIISE (%) >5 SE” value amounted to 10%, the “TIISE (%) >10 SE” value worked out at 5%, the “TIISE (%) Total” value was found to be 20% and the “TISE (%)” value is 25%. Also, in experiment [4] (Kinetin 1 mg/l), the “TIISE (%) >5 SE” value amounted to 0%, the “TIISE (%) >10 SE” value worked out at 0%, the “TIISE (%) Total” value is 15% and the “TISE (%)” value was 45%. In addition, in experiment [4] (kinetin 0-1 mg/l), the TIISEs formation entry is given as “appeared to negatively affect TIISEs formation” and the “induction of TISEs” value is reported as “played little role in induction of TISEs”.

For the molecule `CC1=CC(=O)CC(C)(C)[C@@]1(O)/C=C/C(C)=C\C(=O)O` [abscisic acid], in experiment [5], the plantlet abnormality entry was “plantlet abnormality was apparently increased”. The improvement of germination entry in experiment [5] (germination in MS medium) is listed as “Improvement of germination in MS medium was not observed”.

As to `NC(=O)C[C@H](N)C(=O)O` [asparagine], the “production of secondary somatic embryos and embryogenic calli” value in experiment [2] was “greatly improved production of secondary somatic embryos and embryogenenic calli”.

Regarding `NC(=O)CC[C@H](N)C(=O)O` [glutamine], in experiment [2], the “production of secondary somatic embryos and embryogenic calli” value was “greatly improved production of secondary somatic embryos and embryogenenic calli”.
